These are literature values, as cited in patent publication US20220273802A1, “METHODS FOR IMPROVED DELIVERY OF AMINOTHIOLS, DIMERS OF AMINOTHIOLS, AND HETERODIMERS COMPOSED OF AMINOTHIOLS” (THE BURLINGTON HC RESEARCH GROUP, INC., priority 2012, published 2022).

The subject of data set [1] is V79 cells. The conditions noted are these: for activity if present outside of V79 cells: compound present outside of cells.
Data set [2] relates to influenza virus A and B.
Data set [3] concerns three species of adenovirus.
The test system of data set [4] is SIV. The conditions noted are these: later studies.
Data set [5] deals with HIV.
In data set [6] the test system is mouse L cells. The conditions noted are these: for radioprotective effect upon mouse L cells in culture: compound alone, without dephosphorylation.

Take `NCCCNCCSSCC(N)C(=O)O` (stereo not drawn) [WR-1065-Cys]: in data set [1], the “activity if present outside of V79 cells” value is recorded as “did not show evidence of activity”.
Consider `NCCCNCCSSCCNCCCN` [WR-33278], for which, in data set [1], the “activity if present outside of V79 cells” value was “did not show evidence of activity”.
In the case of `NCCCNCCS` [WR-1065], the “antiviral efficacy against influenza virus A and B” value in data set [2] is “exhibits antiviral efficacy”. Also, the “antiviral efficacy against three species of adenovirus” value in data set [3] is listed as “exhibits antiviral efficacy”. Moreover, the “efficacy against SIV” value in data set [4] is listed as “demonstrated efficacy”. The “antiviral efficacy against HIV” value in data set [5] is given as “exhibits antiviral efficacy”. The “activity if present outside of V79 cells” value in data set [1] was “did not show evidence of activity”. In data set [1] (correlated with intracellular levels), the protection against gamma-radiation result is listed as “significant protection”. The “radioprotective effect upon mouse L cells in culture” value in data set [6] is reported as “Activity also was observed”.
For `NCCCNCCSP(=O)(O)O` [Amifostine], the “activity if present outside of V79 cells” value in data set [1] is “did not show evidence of activity”. Also, the “radioprotective effect upon mouse L cells in culture” value in data set [6] is listed as “no radioprotective effect”. For the same compound, the radioprotective activity result in data set [6] (incubated with mouse liver homogenate (active alkaline phosphatase)) is reported as “radioprotective activity was observed”.
